The values that follow come from US20070099917A1, “Novel inhibitors and methods for their preparation” (THE WALTER AND ELIZA HALL INSTITUTE OF MEDICAL RESEARCH, priority 2005, published 2007).

This data set in a line: Hydrolysis of FMS derivative in mouse plasma. The class given is in vitro ADME. The conditions noted are these: 100 μM in mouse plasma at 37° C., after 28 hours, RP-HPLC. The method, then: Mouse plasma was incubated with 100 μM FMS-6-amino-4-(3-chlorophenylamino)quinazoline at 37° C. Samples were taken and analysed on RP-HPLC as described above in Example 1b) ii). The relative amounts of the two peaks were calculated. Chromatograms of samples taken at 0 (see FIG. 5), 5 (see FIG. 6) and 22 (see FIG. 7) hours show the relative change in the amount of the two compounds (i.e. FMS-6-amino-4-(3-chlorophenylamino)quinazoline vs 6-amino-4-(3-chlorophenylamino)quinazoline) in the plasma after incubation at 37° C.

The structures appear in SMILES notation.

As for `O=C(Nc1ccc2ncnc(Nc3cccc(Cl)c3)c2c1)OCC1c2ccccc2-c2ccc(S(=O)(=O)O)cc21` (stereo not shown) [FMS-6-amino-4-(3-chlorophenylamino)quinazoline], the “Hydrolysis to 6-amino-4-(3-chlorophenylamino)quinazoline in mouse plasma” value is listed as “almost completely hydrolysed”.
